Source: patent US20130288981A1, “TARGETING SENESCENT CELLS AND CANCER CELLS BY INTERFERENCE WITH JNK AND/OR FOXO4” (Buck Institute for Research on Aging, priority 2012, published 2013)

Key:
A375 melanoma cells = test: Surviving fraction (MTS) of A375-shGFP versus A375-shFOXO4 cells treated with chemotherapeutic agents; assay type: cell-based, human
Method: FIG. 12. FOXO4 inhibition on sensitizes A375 melanoma cells to inhibitors of the BRAF/MEK pathway. A) A375 cells stably infected with a control shRNA (shGFP) or an shRNA against FOXO4 (shFOXO4) were treated with the indicated concentrations of the BRAF^V600E-inhibitor PLX4032 and the percentage of the surviving fraction on was determined by Aqueous CellQuant assay either after day 6 (left panel) or day 11 (right panel). Note that for the right panel the cells were refreshed at day 7 with the exact same concentration on of PLX4032. B) Similar experiment as in A), except with the general RAF inhibitor RAF265. C) Similar experiment as in A), except with the MEK inhibitor AZD6244.
FIG. 12A: 2×10^4 A375-shGFP or A375-shFOXO4-2 cells were plated in triplicate in 96-well plate chambers. The next day the cells were incubated with the indicated concentrations of PLX4032 or left untreated. After 6 days the a CellTiter 96® AQueous One Solution Cell Proliferation Assay (MTS) was performed according to the manufacturer's instructions (Promega) to determine the relative number of cells versus Mock treated A375-shGFP or A375-shFOXO4-2 melanoma cells (Left panel). Additionally, in a separate experiment the cells were refreshed at day 7 with the same dose of PLX4032 and left for another 4 days after which the same procedure was performed. […]

JNK1/2 = details: in vitro and in cultured cells; literature; cited from earlier work
[1] = tested on: MCF7 mammary carcinoma cells; test: Cytochrome C release in MCF7 cells with FOXO4 knockdown treated with 5'-fluoro-uracil; assay type: cell-based, human; details: 5 μM, 40 h
Method: FIG. 11. Sensitization of melanoma cells other types of cancer to additional types of chemotherapy. A) A375 melanoma cells were incubated with the FOXO4-p53 blocking peptide mix in the presence or absence of 2 μM Cisplatin and after 4 days cellular morphology was visualized. […] B) MCF7 mammary carcinoma cells were infected with the short hairpins against FOXO4 and after puromycin selection treated with 5 μM 5′-fluoro-uracil. 40 h later the percentage Cytochrome C-release was scored. The immunofluorescence panels show staining of Cytochrome C. The top, middle and bottom left panels all show mitochondrial Cytochrome C staining. […] C) B16F10Luc mouse melanoma cells were infected with a mouse-specific short hairpin against FOXO4 and short hairpin #2 against human FOXO4 from FIG. 2 which shares sequence homology with mouse FOXO4. After puromycin selection cells were incubated with 10 μM Cisplatin and after 7 days cellular viability was determined by CellTiter 96® AQueous One Solution Cell Proliferation Assay (MTS).
FIG. 11A: 2×10^5 A375 melanoma cells were plated in 24-well plate chambers. The next day the cells were incubated with 50 μM DBD2-peptide or a mixture of 25 μM DBD2-peptide and 25 μM C-term peptide in the presence or absence of 2 μM Cisplatin. […]

FOXO4 = FOXO4 knockdown by short hairpins: FOXO4 mRNA (QPCR) and punctate FOXO4 staining; assay type: cell-based, human; details: HCA2 fibroblasts, 8 days after 10Gy XRAY
From the text: FIG. 2. Knockdown of FOXO4 results in apoptosis rather than senescence in DNA-damaged IMR90 fibroblasts. A) Reduction in punctate FOXO4 staining and FOXO4 mRNA expression after 8 days 10Gy XRAY in HCA2 fibroblasts infected […] hairpins targeted at FOXO4. […] B) Increased cytoplasmic Cytochrome C staining (a marker of apoptosis; arrowheads) in DNA-damaged IMR90 cells infected with knockdown against FOXO4. The percentage apoptotic cells is quantified. C) Increased TUNEL staining (a second marker of apoptosis) in similar conditions a B.
FIG. 2A: HCA2 fibroblasts were infected with lentiviral particles containing a control shRNA-encoding vector targeted against a mature sequence in GFP (based on vector PLK0.1, Open Biosystems): 5′-[…]-3′ or two independent sequences in (human) FOXO4, shFOXO4-1: 5′-[…]-3′ and shFOXO4-2: 5′-[…]-3′. Following selection for two days in 0.5 μg/ml Puromycin cells were plated and processed as in FIG. 1 to determine FOXO4 mRNA expression and FOXO4 localization by immunofluorescence. FIG. 2B: IMR90 fibroblasts were infected and treated as in A). Following selection 2×10^5 cells were plated on coverslips and irradiated the next day. […] The percentage of cells with released Cytochrome C staining (translocated from punctual mitochondrial staining to diffuse or absent staining) was determined for 100 cells per condition. […]

| Molecule | sensitivity of A375-shFOXO4 versus A375-shGFP melanoma cells (A375 melanoma cells) | knockdown of FOXO4 mRNA and punctate FOXO4 staining (FOXO4) | also measured |
| --- | --- | --- | --- |
| Cn1c(Nc2ccc(C(F)(F)F)cc2)nc2cc(Oc3ccnc(-c4ncc(C(F)(F)F)[nH]4)c3)ccc21 [RAF265] | more sensitive |  |  |
| dDdQdSdRdPdVdQdPdFdLdQdLdTdTdPdRdKdPdRdPdPdRdRdRdQdRdRdKdKdRG [D-JNK1] |  |  | inhibition of JNK1/2 kinase activity (JNK1/2): selectively blocks access to its substrates |
| N.N.[Cl][Pt][Cl] [Cisplatin] | more sensitive |  |  |
| O=c1[nH]cc(F)c(=O)[nH]1 [5-fluorouracyl] |  |  | sensitization of MCF7 cells by FOXO4 knockdown (Cytochrome C release) [1]: sensitized |
| 5′-CCAGCTTCAGTCAGCAGTTAT-3′ [shFOXO4-1] |  | induce knockdown of FOXO4 mRNA and reduction in punctate FOXO4 |  |
| 5′-CGTCCACGAAGCAGTTCAAAT-3′ [shFOXO4-2] |  | induce knockdown of FOXO4 mRNA and reduction in punctate FOXO4 |  |
